Measurements taken from patent US20250351832A1, “PHYTOCHEMICALS AS BIOPESTICIDES AND BIOSTIMULANTS” (KAY BEE BIO ORGANICS PVT. LTD., priority 2024, published 2025).
Read-outs that look alike come from different tables or passages of the source.

Tests used:
Thrips [1] = settings: 48 h, 1 mL or g/L
Mite [2] = settings: mite on okra plants, green house; dose 1 ml/gm/lit. spray; 48 hrs after application
Aphid [3] = system: Aphid
Spodoptera litura [4] = settings: Spodoptera litura 3rd instar on cabbage plants; dose 1 ml/gm/lit. spray; 72 hrs after application
Helicoverpa armigera [5] = settings: Helicoverpa armigera on okra fruits, dose 1 ml/gm/lit., 72 Hrs.
Helicoverpa armigera [6] = settings: Helicoverpa armigera 3rd instar on chickpea plants, dose 1 ml/gm/lit. spray
Mealy Bug [7] = test: Green house effect on mealy bugs, cotton plants (Ex. 24); settings: in vivo
Mite [8] = test: Green house effect on mite, okra plants (Ex. 23); settings: in vivo
Mite [9] = settings: Dose 1 ml/gm/lit.; 48 hrs
Aphid [10] = settings: 48 h, 1 mL or g/L
Spodoptera litura [11] = test: whole plant or invertebrate; settings: 72 h
chili seedlings = test: Response of chili plants, greenhouse growth (Ex. 31); type: in vivo
Aphid [12] = test: whole plant or invertebrate; settings: 48 h
Spodoptera litura [13] = settings: 72 h, 1 mL or g/L
tomato seedlings = test: Response of tomato plants, greenhouse growth (Ex. 30); type: in vivo
Mealy Bug [14] = test: In vitro bio-efficacy against mealy bug (Ex. 16); settings: in vivo
Thrips [15] = test: Greenhouse effect on thrips, cotton plants (Ex. 27); settings: in vivo
Thrips [16] = settings: 48 h
Thrips [17] = test: whole plant or invertebrate; settings: in Gossypium hirsutum, 48 h
Spodoptera litura [18] = test: Controlled conditions, Spodoptera litura on cabbage plants (Ex. 26); settings: in vivo
Alternaria alternata = test: In vitro poisoned food technique against fungus (Ex. 20); type: cell-based; settings: […]
[19] = cited from earlier work
[20] = chili seedlings, dose 1 ml/gm/lit, 10th day
[21] = read-out: % Corrected Mortality at 48 Hrs.
[22] = read-out: % Mortality at 48 Hrs.
[23] = tomato seedlings, 10th day, dose 1 ml/gm/lit
[24] = Table 13, descriptive, no test described

In the case of `C=C(C)[C@H]1CC=C(C)CC1` [D-limonene], the “Total No. of dead insect at 48 Hrs.” value (Thrips [1]) is reported as 3.75, the “% Mortality at 48 Hrs.” value (Mite [2]) is reported as 52.50% and the “Total No. of dead insect at 48 Hrs.” value (Aphid [3]; 48 h) is reported as 6.25. For the same molecule, the “% Corrected Mortality at 48 Hrs.” value (Aphid [3]; Dose 1 ml/gm/lit., 48 hrs) was 57.14%, the “% Mortality at 72 Hrs.” value (Spodoptera litura [4]) was 27.50% and the “% Mortality at 72 Hrs.” value (Helicoverpa armigera [5]) was 32.50%. The “% Corrected Mortality at 72 Hrs.” value (Helicoverpa armigera [5]; corrected for water control) was 32.50%, the “% Mortality at 72 Hrs.” value (Helicoverpa armigera [6]; 72 hrs after application) was 32.50% and the “% Corrected Mortality at 72 Hrs.” value (Helicoverpa armigera [6]; 72 hrs, corrected for water control) was 32.50%. The “% Corrected Mortality at 48 Hrs.” value (Mealy Bug [7]) was 38.89%, the “% Mortality at 48 Hrs.” value (Mealy Bug [7]) was 45.00% and the “% Corrected Mortality at 48 Hrs.” value (Mite [8]) was 50.00%. The “% Corrected Mortality at 48 Hrs.” value (Mite [9]) was 45.95%, the “% Mortality at 48 Hrs.” value (Mite [9]) was 50.00% and the “Total No. of dead insect at 48 Hrs.” value (Aphid [10]) was 62.50. For the same molecule, the mortality at 1 mL or g/L (Spodoptera litura [11]; read-out: % Corrected Mortality at 72 Hrs.) was 21.1%, the mortality at 1 mL or g/L (Spodoptera litura [11]; read-out: % Mortality at 72 Hrs.) was 25% and the “CCI Pre” value (chili seedlings) was 10.30. The “Plant Height (cm) Pre” value (chili seedlings) was 4.90 cm, the “CCI 5th Day” value (chili seedlings; 120 h) was 13.60 and the “Plant Height (cm) 5th Day” value (chili seedlings; 120 h) was 6.97 cm. The “CCI 10th Day” value (chili seedlings; 240 h) was 17.4, the “Plant Height (cm) 10th Day” value (chili seedlings; 240 h) was 8.24 cm and the “Root Lenght % Increase over control” value (chili seedlings; 240 h) was 61.51%. For the same molecule, the “CCI % Increase over pre on 10th Day” value (chili seedlings; [20]) was 68.93%, the “Plant Height % Increase over pre on 10th Day” value (chili seedlings; [20]) was 68.16% and the “Root Lenght (cm) 10th Day” value (chili seedlings; [20]) was 4.42 cm. For the same molecule, the “Stem Girth % Increase over pre on 10th Day” value (chili seedlings; [20]) was 60.00%, the mortality at 1 mL or g/L (Aphid [12]; [21]) was 55.9% and the mortality at 1 mL or g/L (Aphid [12]; [22]) was 62.5%. For the same molecule, the “Total No. of dead insect at 72 Hrs.” value (Spodoptera litura [13]) was 2.50, the “CCI Pre” value (tomato seedlings) was 11.59 and the “Plant Height Pre” value (tomato seedlings) was 5.52 cm. For the same molecule, the “Stem Girth Pre” value (tomato seedlings) was 1.30 mm, the “CCI 5th Day” value (tomato seedlings; 120 h) was 13.66 and the “Plant Height 5th Day” value (tomato seedlings; 120 h) was 6.44 cm. For the same molecule, the “Stem Girth 5th Day” value (tomato seedlings; 120 h) was 1.98 mm, the “CCI 10th Day” value (tomato seedlings; 240 h) was 15.54 and the “Plant Height 10th Day” value (tomato seedlings; 240 h) was 7.56 cm. For the same molecule, the “Root Length % Increase over control” value (tomato seedlings; 240 h) was 25.57%, the “Stem Girth 10th Day” value (tomato seedlings; 240 h) was 2.21 mm and the “Plant Height % Increase over pre on 10th Day” value (tomato seedlings; [23]) was 36.96%. For the same molecule, the “Stem Girth % Increase over pre on 10th Day” value (tomato seedlings; [23]) was 69.48%, the “CCI % Increase over pre on 10th Day” value (tomato seedlings; tomato seedlings, dose 1 ml/gm/lit, 10th day) was 34.08% and the “% Corrected Mortality at 48 Hrs.” value (Mealy Bug [14]) was 39.47%. For the same molecule, the “% Mortality at 48 Hrs.” value (Mealy Bug [14]) was 42.50%, the “% Corrected Mortality at 48 Hrs.” value (Thrips [15]) was 30.56% and the “Total No. of dead insect at 48 Hrs.” value (Thrips [16]) was 37.50. For the same molecule, the mortality at 1 mL or g/L (Thrips [17]; [21]) was 28.6%, the mortality at 1 mL or g/L (Thrips [17]; [22]) was 37.5% and the “% Corrected Mortality at 72 Hrs.” value (Spodoptera litura [18]) was 23.68%. For the same molecule, the inhibition of growth at 1 mL or g/L (Alternaria alternata) was 46.6%, the “Acaricidal Activity - Mode of action” value [19, 24] was “Ovicidal, repellent activity” and the “Antioxidant Activity - Mode of action” value [19, 24] was “Possesses antioxidant”. The “Virucidal Activity - Mode of action” value [19, 24] was “Exhibits viricidal activities” and the “Phytotonic Effect” value ([19]; Table 13, effect on plants, descriptive) was “Exhibits plant”.
